The assay addresses T1, human BKαβ1 channels (Homo sapiens, UniProt Q12791).
T1 construct: expressed in transfected cells; host or cells: CHO cells (G418 and hygromycin selection)
Description: BK current in CHO cells expressing human BKαβ1 (PatchXpress whole-cell patch clamp), EC100. In kind it is cell-based. The conditions noted are these: drug concentration causing 100% increase of BK current. The method, then: Methods for Testing Compounds on Human BKαβ1 Channels Expressed Cho Cells
CHO cells expressing human BKαβ1 were cultured in T75 or 6 well cell culture cluster. Medium: DMEM/F12+10% FBS+0.5 mg/mL G418/genetecin+0.1 mg/mL Hygromycin. Split cells every 3-4 days at 80-90% confluence. Use cells for experiments 60-72 hrs after re-passage and at ˜90% confluence.
Trypsin solution (0.05% Trypsin+0.1% EDTA), Ca^2+ free PBS and culture medium were warmed to 37° C. Inspect the T75 flask for cell confluence. Remove culture medium and add warm Ca^2+ free PBS to wash cells. Remove Ca^2+ free PBS and add warm Trypsin solution. Put the T75 flask back to 37° C. incubator for about 4.5 minutes. Stop Trypsin activity by adding culture medium. Spin the cells down. Suspend cells in 120-160 μL external solution for BK current recording and use the cells as soon as possible.
PatchXpress Sealchip 16 electrodes (AVIVA Biosciences) and PatchXpress 7000A (Axon Instruments, Inc) were used for BK current recording. Flat bottom 1.5 mL glass vial (HiPep Laboratories) were used for containing external solutions (±compounds). The holes in the sealchip (equivalent to patch electrode) had resistance about 1.5 MΩ. Cell membrane capacitance was compensated and access resistance was also compensated by 40%. Voltage-clamp protocol: Holding voltage=0 mV. Record BK current during 200-ms steps between +80 to +120 mV in 10 mV increments and 2 sec inter-pulse interval. On-line digital leak subtraction was performed by a P/−4 procedure. After whole-cell configuration was established, 2 minute was used to optimize access resistance. Then the chamber was washed with control bath solution for 1 minute to remove excessive cells. Control bath solution was added with robotic pipette and control BK current was recorded after 1 minute equilibrium time. For each drug concentration, 45 μL drug solution was added three times with “suction before adding” mode which left old solution. For each drug addition, 1 minute equilibrium time was given. BK current was measured at each drug concentrations (usually within 3.5 minutes after first drug addition). Calculate % change of BK current at the voltage step when the control BK current first exceeding 200 pA. If the control BK current was less than 200 pA at 120 mV, the cell was not used. % changes were calculated as 100*(Id−Ic)/Ic, where Id was the current amplitude in the presence of drug and Ic was the control current amplitude.
EC100 was defined as the drug concentration causing 100% increase of BK current calculated by the method described above. EC100 was determined by the data points just below and above 100%. % Increase of BK current was plotted against log [drug concentration]. A straight line connected two data points flanking 100%. From this straight line, the concentration corresponding to 100% increase of BK current was determined as EC100.
Compounds were dissolved in DMSO to make 10 mM stock solutions. Subsequent dilutions were made with external solution. The testing drug concentrations were 0.1, 0.3, 1, 3 and 10 μM depending on the potency of compounds. The highest DMSO concentration was 0.1%. External solution (in mM): 140 NaCl, 4 KCl, 1 MgCl2, 2 CaCl2, 10 Glucose, 10 HEPES; pH=7.4 with NaOH. Internal solution (in mM): 140 KCl, 5 EGTA, 1 MgCl2, 5 MgATP, 0.2 CaCl2, 5 HEPES; pH=7.2 with KOH.
(The patch-clamp technique gives a direct electrical read-out from membranes.)
T1 sequence (Q12791 whole entry): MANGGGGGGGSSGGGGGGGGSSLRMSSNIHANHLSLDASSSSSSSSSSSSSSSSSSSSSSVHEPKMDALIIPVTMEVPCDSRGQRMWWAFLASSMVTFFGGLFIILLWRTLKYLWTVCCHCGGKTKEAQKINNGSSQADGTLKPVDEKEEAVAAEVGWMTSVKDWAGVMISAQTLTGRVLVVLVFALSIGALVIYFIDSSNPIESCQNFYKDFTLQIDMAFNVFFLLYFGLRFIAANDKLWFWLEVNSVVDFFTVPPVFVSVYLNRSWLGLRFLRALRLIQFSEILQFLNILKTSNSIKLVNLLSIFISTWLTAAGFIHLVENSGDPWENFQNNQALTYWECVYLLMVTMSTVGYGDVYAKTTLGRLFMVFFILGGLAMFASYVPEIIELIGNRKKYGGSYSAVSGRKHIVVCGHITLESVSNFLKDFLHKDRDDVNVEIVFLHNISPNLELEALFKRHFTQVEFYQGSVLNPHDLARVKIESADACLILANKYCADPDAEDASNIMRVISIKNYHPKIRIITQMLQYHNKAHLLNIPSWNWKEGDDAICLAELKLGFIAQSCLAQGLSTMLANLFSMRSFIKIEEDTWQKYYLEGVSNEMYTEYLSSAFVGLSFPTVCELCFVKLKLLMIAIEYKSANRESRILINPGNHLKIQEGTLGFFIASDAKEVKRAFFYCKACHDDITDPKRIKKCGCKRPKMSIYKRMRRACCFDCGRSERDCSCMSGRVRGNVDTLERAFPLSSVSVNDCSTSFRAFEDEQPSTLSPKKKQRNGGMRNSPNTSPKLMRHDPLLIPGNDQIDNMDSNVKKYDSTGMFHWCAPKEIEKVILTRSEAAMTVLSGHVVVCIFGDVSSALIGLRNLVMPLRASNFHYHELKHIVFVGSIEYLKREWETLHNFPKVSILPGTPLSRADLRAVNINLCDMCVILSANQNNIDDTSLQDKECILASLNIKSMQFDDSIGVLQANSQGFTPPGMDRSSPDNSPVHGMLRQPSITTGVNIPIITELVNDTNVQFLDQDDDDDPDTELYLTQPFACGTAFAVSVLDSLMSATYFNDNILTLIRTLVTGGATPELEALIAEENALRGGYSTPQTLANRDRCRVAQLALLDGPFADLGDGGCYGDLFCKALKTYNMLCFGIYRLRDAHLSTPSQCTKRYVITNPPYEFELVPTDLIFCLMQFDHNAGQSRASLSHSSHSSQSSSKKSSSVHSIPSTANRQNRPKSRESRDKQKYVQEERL
T1 sequence (Q16558 whole entry partner): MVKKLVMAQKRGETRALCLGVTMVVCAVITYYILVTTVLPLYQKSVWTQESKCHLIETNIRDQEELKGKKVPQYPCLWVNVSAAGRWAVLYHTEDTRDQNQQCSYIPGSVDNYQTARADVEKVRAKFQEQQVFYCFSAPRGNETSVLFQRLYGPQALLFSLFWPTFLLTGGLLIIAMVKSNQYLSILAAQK
On to `COC[C@@H]1CCCN1c1nc(OC(C)(C)C(=O)[O-])nc(-c2ccc(Cl)c(F)c2)n1.[Na+]` [Example 6], for which the EC100 came to 1.61 µM.
Compound `CC(C)(Oc1cc(N2CCC(C(C)(C)O)CC2)nc(-c2ccc(Cl)c(F)c2)n1)C(=O)[O-].[Na+]` [Example 16] displayed an EC100 of 1.91 µM.
For `COCC1CCN(c2cc(OC(C)(C)C(=O)[O-])nc(-c3ccc(Cl)c(F)c3)n2)CC1.[Na+]` [Example 17], the EC100 stood at 2.47 µM.
Take `CCC(CC)(Oc1cc(N2CCC(OC)CC2)nc(-c2ccc(Cl)c(F)c2)n1)C(=O)[O-].[Na+]` [Example 33]: the EC100 came to 1.75 µM.
Next, `COC[C@@H]1CCCN1c1cc(OC2(C(=O)[O-])CC2)nc(-c2ccc(Cl)c(F)c2)n1.[Na+]` [Example 36]: 0.59 µM; `COC[C@H]1CCCN1c1cc(OC2(C(=O)[O-])CC2)nc(-c2ccc(Cl)c(F)c2)n1.[Na+]` [Example 37]: 0.69 µM; `COCC1CCN(c2cc(OC3(C(=O)[O-])CC3)nc(-c3ccc(Cl)c(F)c3)n2)CC1.[Na+]` [Example 39]: 0.25 µM.
As for `O=C([O-])C1(Oc2cc(NC3CCCC3)nc(-c3ccc(Cl)c(F)c3)n2)CC1.[Na+]` [Example 47], the figure is 0.33 µM; as for `CCO[C@H]1CCCN(c2cc(OC3(C(=O)[O-])CC3)nc(-c3ccc(Cl)c(F)c3)n2)C1.[Na+]` [Example 50], 1.05 µM; as for `CCOC1CCN(c2cc(OC3(C(=O)[O-])CC3)nc(-c3ccc(Cl)c(F)c3)n2)C1.[Na+]` (stereo not shown) [Example 51], 1.09 µM.
As for `COC[C@@H]1CCCN1c1cc(OC2(C(=O)[O-])CCCC2)nc(-c2ccc(Cl)c(F)c2)n1.[Na+]` [Example 54], the figure is 1.31 µM.
In turn, `COC[C@@H]1CCCN1c1cc(OC2(C(=O)[O-])CC2)nc(-c2cccc(C(F)(F)F)c2)n1.[Na+]` [Example 62] gave an EC100 of 1.5 µM.
As for `COC[C@@H]1CCCN1c1cc(OC2(C(=O)[O-])CC2)nc(-c2ccc(C(F)(F)F)cc2)n1.[Na+]` [Example 63], the figure is 1.28 µM.
In turn, `CCOc1cccc(-c2nc(OC3(C(=O)[O-])CC3)cc(N3CCC[C@H]3COC)n2)c1.[Na+]` [Example 65] came in with an EC100 of 1.43 µM.
As for `COC[C@@H]1CCCN1c1cc(OC2(C(=O)[O-])CC2)nc(-c2ccc(Cl)s2)n1.[Na+]` [Example 67], the figure is 1.92 µM; as for `COCC1CCN(c2cc(OC3(C(=O)[O-])CC3)nc(-c3ccc(Cl)s3)n2)CC1.[Na+]` [Example 69], 2.56 µM.
Next, `CCCOC1CCN(c2cc(OC3(C(=O)[O-])CC3)nc(-c3ccc(F)cc3)n2)CC1.[Na+]` [Example 78]: 1.41 µM; `COc1ccc(C(C)=O)cc1-c1cc(OC2(C(=O)[O-])CC2)nc(-c2ccc(Cl)c(F)c2)n1.[Na+]` [Example 199]: 1.14 µM.
As for `COc1cccc(-c2cc(OC(C)(C)C(=O)[O-])nc(-c3ccc(Cl)c(F)c3)c2)c1.[Na+]` [Example 206], the figure is 0.68 µM; as for `COc1ccccc1-c1nc(OC(C)(C)C(=O)[O-])nc(-c2ccc(Cl)c(F)c2)n1.[Na+]` [Example 207], 1.91 µM.
For `COc1cc(F)ccc1-c1cc(OC2(C(=O)[O-])CC2)nc(-c2ccc(F)c(F)c2)n1.[Na+]` [Example 208], the EC100 is 0.38 µM.
Next, `COCCOc1cc(F)ccc1-c1cc(OC2(C(=O)[O-])CC2)nc(-c2ccc(Cl)c(F)c2)n1.[Na+]` [Example 209]: 0.27 µM.
As for `CC(C)(Oc1cc(-c2ccc(F)cc2)nc(-c2ccc(Cl)c(F)c2)n1)C(=O)[O-].[Na+]` [Example 474], the figure is 0.36 µM; as for `COCc1ccc(-c2cc(OC(C)(C)C(=O)[O-])nc(-c3ccc(Cl)c(F)c3)n2)cc1.[Na+]` [Example 485], 1.83 µM; as for `COc1nc(-c2cc(OC(C)(C)C(=O)[O-])nc(-c3ccc(Cl)c(F)c3)n2)cs1.[Na+]` [Example 506], 1.38 µM.
